Test results as given in ChEMBL document CHEMBL1201862, “PubChem BioAssay data set” (2004).
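1) Cells in 96-well plates. 2) Compound, 48 h, 5 concentrations. 3) Linear interpolation between surrounding doses. 4) Unreached endpoint = highest concentration. Abbreviation: GI50, concentration required for 50% inhibition of growth.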 The source made the active and inactive calls. Cut-off read from the data, not from the text of the source: active = GI50 up to about 1.1 µM and inactive = higher.

Legend:
Test in all cases: DTP human tumour cell line panel, 48 h
SW-620 = system: SW-620
U-251 = system: U-251
RPMI-8226 = system: RPMI-8226
SK-MEL-28 = system: SK-MEL-28
HOP-62 = system: HOP-62
KM12 = system: KM12
ACHN = system: ACHN
HCT-116 = system: HCT-116
NCI-H23 = system: NCI-H23
NCI-H226 = system: NCI-H226
SNB-19 = system: SNB-19
OVCAR-8 = system: OVCAR-8
CAKI-1 = system: CAKI-1
NCI-H522 = system: NCI-H522
OVCAR-3 = system: OVCAR-3
A498 = system: A498

Structure (SMILES) | GI50 (SW-620) | GI50 (U-251) | GI50 (RPMI-8226) | GI50 (SK-MEL-28) | GI50 (HOP-62) | GI50 (KM12) | GI50 (ACHN) | GI50 (HCT-116) | GI50 (NCI-H23) | GI50 (NCI-H226) | GI50 (SNB-19) | GI50 (OVCAR-8) | GI50 (CAKI-1) | GI50 (NCI-H522) | GI50 (OVCAR-3) | GI50 (A498)
CC(=O)O[C@]12CCCCCC1C1(O)C(O)CCC[C@H]12 (stereo not given in full) | > 100 µM (inactive) | > 100 µM (inactive) | > 100 µM (inactive) | > 100 µM (inactive) | > 100 µM (inactive) | > 100 µM (inactive) | > 100 µM (inactive) | > 100 µM (inactive) | > 100 µM (inactive) | > 100 µM (inactive) | > 100 µM (inactive) | > 100 µM (inactive) | – | – | – | –
CC1(c2ccccc2Cl)C(C#N)C(=O)NC(=O)C1C#N (stereo not given) | 43.8 µM (inactive) | – | 22.7 µM (inactive) | 37.8 µM (inactive) | 30.6 µM (inactive) | > 10 µM (inactive) | 34.8 µM (inactive) | – | 33.3 µM (inactive) | 27.5 µM (inactive) | 28.7 µM (inactive) | 35.6 µM (inactive) | > 100 µM (inactive) | 20.8 µM (inactive) | 17.8 µM (inactive) | 36.4 µM (inactive)
O=C1CCC(c2ccccc2)C(O)(C(=O)O)C1 (stereo not given) | > 100 µM (inactive) | > 100 µM (inactive) | > 100 µM (inactive) | > 100 µM (inactive) | > 100 µM (inactive) | > 100 µM (inactive) | > 100 µM (inactive) | > 100 µM (inactive) | > 100 µM (inactive) | > 100 µM (inactive) | > 100 µM (inactive) | > 100 µM (inactive) | > 100 µM (inactive) | > 100 µM (inactive) | > 100 µM (inactive) | > 100 µM (inactive)
COc1cccc(/C=C(\NC(C)=O)c2nc3cc(Cl)ccc3[nH]2)c1 | > 100 µM (inactive) | > 100 µM (inactive) | – | > 100 µM (inactive) | – | > 100 µM (inactive) | > 100 µM (inactive) | – | > 100 µM (inactive) | – | > 100 µM (inactive) | > 100 µM (inactive) | > 100 µM (inactive) | > 100 µM (inactive) | > 100 µM (inactive) | –
O=C(Nc1cccc(Cc2cccc(NC(=O)c3ccccc3)c2)c1)c1ccccc1 | > 100 µM (inactive) | 20.1 µM (inactive) | – | 41.7 µM (inactive) | 22 µM (inactive) | > 100 µM (inactive) | 28.2 µM (inactive) | 50.6 µM (inactive) | 33.1 µM (inactive) | 29 µM (inactive) | 25.4 µM (inactive) | 19.5 µM (inactive) | 16.9 µM (inactive) | 25.2 µM (inactive) | 26.9 µM (inactive) | 17.8 µM (inactive)
CSc1snc2sc3c(Cl)nnnc3c12 | 3.8 µM (inactive) | 15.1 µM (inactive) | 15.6 µM (inactive) | 10.6 µM (inactive) | 16.1 µM (inactive) | 16.4 µM (inactive) | 11.1 µM (inactive) | 16 µM (inactive) | 18.3 µM (inactive) | – | 15.8 µM (inactive) | 7.46 µM (inactive) | 4.42 µM (inactive) | – | 2.43 µM (inactive) | 15 µM (inactive)
CC(=O)/C(=C\c1cccc([N+](=O)[O-])c1)C(=O)Nc1ccccc1C | > 100 µM (inactive) | 91.2 µM (inactive) | 42.8 µM (inactive) | > 100 µM (inactive) | > 100 µM (inactive) | > 100 µM (inactive) | > 100 µM (inactive) | 57.3 µM (inactive) | > 100 µM (inactive) | > 100 µM (inactive) | 94.4 µM (inactive) | > 10 µM (inactive) | > 100 µM (inactive) | > 100 µM (inactive) | > 100 µM (inactive) | –
C=CCC(C(=O)OC)C1(C(=O)OC)c2[nH]c3ccccc3c2CCN1Cc1ccccc1 (stereo not given) | > 100 µM (inactive) | 64.4 µM (inactive) | > 100 µM (inactive) | > 100 µM (inactive) | > 100 µM (inactive) | > 100 µM (inactive) | – | 69.5 µM (inactive) | > 100 µM (inactive) | – | > 100 µM (inactive) | 83.6 µM (inactive) | 66.8 µM (inactive) | > 100 µM (inactive) | > 100 µM (inactive) | 54.6 µM (inactive)
COc1ccc(/C=c2/sc3n(c2=O)NC2(CCC(C)CC2)NN=3)cc1 (stereo not given) | > 100 µM (inactive) | > 100 µM (inactive) | – | > 100 µM (inactive) | > 100 µM (inactive) | > 100 µM (inactive) | > 100 µM (inactive) | > 100 µM (inactive) | > 100 µM (inactive) | > 100 µM (inactive) | > 100 µM (inactive) | > 100 µM (inactive) | > 100 µM (inactive) | > 100 µM (inactive) | 60.8 µM (inactive) | –
CC1(C)C=N[N+]2(C)C3C=CC(CC3)C12 (stereo not given) | – | > 100 µM (inactive) | > 100 µM (inactive) | > 100 µM (inactive) | > 100 µM (inactive) | > 100 µM (inactive) | > 100 µM (inactive) | > 100 µM (inactive) | > 100 µM (inactive) | > 100 µM (inactive) | > 100 µM (inactive) | > 100 µM (inactive) | > 100 µM (inactive) | > 100 µM (inactive) | > 100 µM (inactive) | > 100 µM (inactive)
O=c1c2cccnc2ncn1CCCN1CCCC1 | > 100 µM (inactive) | > 100 µM (inactive) | – | > 10 µM (inactive) | > 100 µM (inactive) | > 100 µM (inactive) | > 100 µM (inactive) | > 100 µM (inactive) | > 100 µM (inactive) | 91 µM (inactive) | > 100 µM (inactive) | > 100 µM (inactive) | > 100 µM (inactive) | > 100 µM (inactive) | > 100 µM (inactive) | –
CNCC(=O)Nc1ccc2c(c1)C(=O)c1ccc(NC(=O)CNC)cc1C2=O | 2.56 µM (inactive) | 2.7 µM (inactive) | – | 2.54 µM (inactive) | 2.9 µM (inactive) | 0.767 µM (active) | – | 1.81 µM (inactive) | 13.4 µM (inactive) | 7.57 µM (inactive) | – | 2.69 µM (inactive) | 5.65 µM (inactive) | 1.59 µM (inactive) | 3.05 µM (inactive) | 14.9 µM (inactive)
C=CC1=C(C)c2cc3[nH]c(cc4nc(cc5[nH]c(cc1n2)c(C)c5CCC(=O)N(CC)CC)C(CCC(=O)N(CC)CC)=C4C)c(C)c3C=C | > 100 µM (inactive) | > 100 µM (inactive) | – | > 100 µM (inactive) | > 100 µM (inactive) | > 100 µM (inactive) | > 100 µM (inactive) | > 100 µM (inactive) | > 100 µM (inactive) | – | – | > 100 µM (inactive) | – | > 100 µM (inactive) | > 100 µM (inactive) | –
CSc1nc(NC2OC(COC(C)=O)C(OC(C)=O)C(OC(C)=O)C2OC(C)=O)c(/N=C/C=N/c2c(NC3OC(COC(C)=O)C(OC(C)=O)C(OC(C)=O)C3OC(C)=O)nc(SC)[nH]c2=O)c(=O)[nH]1 (stereo not given) | > 100 µM (inactive) | > 100 µM (inactive) | > 100 µM (inactive) | > 100 µM (inactive) | > 100 µM (inactive) | > 100 µM (inactive) | > 100 µM (inactive) | > 100 µM (inactive) | > 100 µM (inactive) | – | > 100 µM (inactive) | > 100 µM (inactive) | – | > 100 µM (inactive) | > 100 µM (inactive) | > 100 µM (inactive)
Cc1ccc(-c2cc(-c3ccco3)c(C#N)c(=O)n2C2OC(OC(=O)c3ccccc3)C(OC(=O)c3ccccc3)C2OC(=O)c2ccccc2)cc1 (stereo not given) | > 100 µM (inactive) | 0.925 µM (active) | > 100 µM (inactive) | > 100 µM (inactive) | 43 µM (inactive) | > 100 µM (inactive) | > 100 µM (inactive) | 32.1 µM (inactive) | – | – | – | > 100 µM (inactive) | > 100 µM (inactive) | 62.8 µM (inactive) | 39.2 µM (inactive) | > 100 µM (inactive)
CCC1(N=[N+]=[N-])C(=O)c2ccccc2N(C)C1=O (stereo not given) | > 100 µM (inactive) | > 100 µM (inactive) | – | > 100 µM (inactive) | > 100 µM (inactive) | > 100 µM (inactive) | > 100 µM (inactive) | > 100 µM (inactive) | > 100 µM (inactive) | – | > 100 µM (inactive) | > 100 µM (inactive) | > 100 µM (inactive) | > 100 µM (inactive) | > 100 µM (inactive) | > 100 µM (inactive)
O=C1NC(=O)C(C(=O)C(=O)Nc2ccc(Cl)cc2Cl)C(=O)N1 | > 100 µM (inactive) | > 100 µM (inactive) | > 100 µM (inactive) | – | > 100 µM (inactive) | 93.1 µM (inactive) | > 100 µM (inactive) | > 100 µM (inactive) | – | – | > 100 µM (inactive) | > 100 µM (inactive) | > 100 µM (inactive) | – | > 100 µM (inactive) | > 100 µM (inactive)
CCc1cccc(C)c1NC(=O)CC(=O)NNC(N)=S | > 100 µM (inactive) | > 100 µM (inactive) | > 100 µM (inactive) | > 100 µM (inactive) | > 100 µM (inactive) | > 100 µM (inactive) | > 100 µM (inactive) | – | > 100 µM (inactive) | > 100 µM (inactive) | > 100 µM (inactive) | > 100 µM (inactive) | > 100 µM (inactive) | > 100 µM (inactive) | > 100 µM (inactive) | –
O=S(=O)(O)C(O)/C=C/c1ccccc1 (stereo not given) | > 100 µM (inactive) | > 100 µM (inactive) | – | > 100 µM (inactive) | > 100 µM (inactive) | > 100 µM (inactive) | > 100 µM (inactive) | 78.5 µM (inactive) | > 100 µM (inactive) | > 100 µM (inactive) | > 100 µM (inactive) | > 100 µM (inactive) | > 100 µM (inactive) | > 100 µM (inactive) | > 100 µM (inactive) | > 100 µM (inactive)
